# Legend:
# L1210 leukemia cells [1] = assay: L1210 leukemia cell growth inhibition (48 hr, Coulter counter); assay type: cell-based, mouse; settings: for IC50: Mus musculus, L1210, RPMI 1640, 10% fetal calf serum; for growth inhibitory activity in words: compared with 85024
# Procedure: Compounds 85024, 85023, 85058, 85027 and 85060 having a glycosidic linkage between the 2'carbon of the arabinose (in pyranose configuration) and base were evaluated for their growth inhibitory action on L1210 leukemia cells maintained in RPMI 1640 medium supplemented with 10% fetal calf serum and 16 mM HEPES, pH 7.2. Cellular growth inhibition was determined by incubating […] for 48 hr in 2 ml of media containing varying concentrations of drugs. Cell growth inhibition (50% growth inhibitory concentration, IC50) was determined after counting cells with a Coulter counter (Bernacki et al., Cancer Res. 45, 695, 1985). Drug concentrations which inhibited cell growth by 50% (IC50) are listed for each compound in Table 1.
# L1210/5-FU leukemia = assay: Therapeutic activity in DBA/2N mice with 5-FU resistant L1210 leukemia; assay type: in vivo, mouse (DBA/2N female)
# Procedure: (§1) In conducting the evaluations, the activity was tested against intraperitoneal (i.p.) implanted leukemia in mice.
# (§2) DBA/2N female mice (20 g) were implanted i.p. with 1×10^6 L1210 leukemia cells on day 0. Mice were weighed and inspected for tumor growth and survival daily. […] Dosages varied from 1 to 800 mg/kg/day (mkd).
# (§3) Survival time was measured in days after tumor implantation. % ILS (increase in life span) was based on mean survival.
# (§4) Testing was followed as described in the NCI protocol and evaluation by comparison of median survival time (ST) of the treated animals to that of the control animals by the percentage increase in % ILS.
# (§5) Drug resistant L1210 leukemia cell sublines were obtained from the National Cancer Institute. […] Eight mice were used as controls and five mice for each drug dosage group. Drugs were administered i.p. once per day on days 1, 2, 3, 4 and 5.
# L1210 leukemia = assay: Therapeutic activity of 85027, 5-FU and ara-C in DBA/2 mice with L1210 leukemia; assay type: in vivo, mouse (DBA/2); design: Mean ± SD survival: unit not given here; settings: for Median survival: control 6; for Mean ± SD survival: control 6.4 ± 0.2
# Procedure: The therapeutic activity of 85027 was compared with that of 5-Fluorouracil (5-FU) and Cytosine Arabinoside (ara-C) in DBA/2 mice with L1210 Leukemia. (Table 3) Tests were performed in accordance with the procedure described in Example 8. […] 5-FU was administered i.p. on days 1,3 and 6.
# L1210 leukemia cells [2] = assay: Reversal of L1210 growth inhibition by salvageable nucleosides; assay type: cell-based, mouse; settings: for IC50: Mus musculus
# Procedure: Reversal studies were conducted as follows: […], 85027 or 5-FdUr were added at various concentrations near their IC50 to cultures of L1210 leukemia cells, maintained in PRMI 1640 medium supplemented with 10% fetal calf serum and 16mM HEPES, pH 7.2 as described in Example 9. Nucleosides including thymidine (1×10^-5 M), uridine (1×10^-4 M), deoxyuridine ([…]), adenosine (1×10^-4 M), or guanosine (1×10^-5 M) were also added to identical drug (85024, 85027 or 5-FdUr) containing L1210 leukemia cultures. Cellular growth inhibition or its prevention by the addition of salvageable nucleosides was determined 48 hours later by counting cells using an electronic Coulter Counter.
# L1210/ara-C leukemia = assay: Therapeutic activity in DBA/2N mice with ara-C resistant L1210 leukemia
# Procedure: as §1, §2, §3, §4, §5
# [3] = 5 mkd i.p. (head: × 5; text: × 3, days 1, 3 and 6)
# [4] = 25 mkd i.p. (head: × 5; text: × 3, days 1, 3 and 6)
smiles,measurement,setting,value
"COC1OC[C@H]2OC(C)(C)O[C@H]2C1(F)n1ccc(=O)[nH]c1=O (mixture of isomers) [compound 85023, Methyl 2-deoxy-3,4-0-isopropylidene-2-rac-[1H,3H-2,4-dioxo-1-pyrimidinyl]-2-fluoro-α-D-arabinopyranoside [5g] and Methyl 2-deoxy-3,4-0-isopropylidene-2-rac-[1H,3H-2,4-dioxo-1-pyrimidinyl]-2-fluoro-β-D-arabinopyranoside [6g]]",IC50,L1210 leukemia cells [1],> 100 µM
same,growth inhibitory activity in words,L1210 leukemia cells [1],loss in biological inactivity
"O=c1[nH]cc(F)c(=O)[nH]1 [5-FU, 5-Fluorouracil]",therapeutic effect,L1210/5-FU leukemia; 25 mkd × 5,did not
same,% ILS (increase in life span),L1210/5-FU leukemia; 25 mkd × 5 i.p.,12%
same,Mean Animal Weight,L1210/5-FU leukemia; 25 mkd × 5 i.p.,17.6 g
same,Survival Range,L1210/5-FU leukemia; 25 mkd × 5 i.p.,5 to 9 days
same,Median survival,"L1210/5-FU leukemia; 25 mkd × 5 i.p., control 9",8 days
same,Mean ± SD survival,"L1210/5-FU leukemia; 25 mkd × 5 i.p., control 9.25 ± 0.2",7.6 ± 0.7 days
same,% ILS (increase in life span),"L1210 leukemia; 5-FU, 5 mkd i.p. (head: × 5; text: × 3, days 1, 3 and 6), p < .01",41%
same,% ILS (increase in life span),"L1210 leukemia; 5-FU, 25 mkd i.p. (head: × 5; text: × 3, days 1, 3 and 6), p < .01",88%
same,% ILS (increase in life span),"L1210 leukemia; 5-FU, 50 mkd × 5 i.p., p < .01",34%
same,% ILS (increase in life span),"L1210 leukemia; 5-FU, 100 mkd × 5 i.p., p < .05",22%
same,% ILS (increase in life span),"L1210 leukemia; 5-FU, 200 mkd × 5 i.p., p < .05",22%
same,Survival Range,L1210 leukemia; [3],9-9 days
same,Median survival,L1210 leukemia; [3],9 days
same,Mean ± SD survival,L1210 leukemia; [3],9
same,Survival Range,L1210 leukemia; [4],12-12 days
same,Median survival,L1210 leukemia; [4],12 days
same,Mean ± SD survival,L1210 leukemia; [4],12
same,toxicity to mice,"L1210 leukemia; 50, 100 and 200 mkd × 5 i.p.",extremely toxic to mice causing severe weight loss
same,weight to which mice fell (severe weight loss),"L1210 leukemia; 50, 100 and 200 mkd × 5 i.p.",13 to 14 g
same,Survival Range,L1210 leukemia; 50 mkd × 5 i.p.,8 to 9 days
same,Median survival,L1210 leukemia; 50 mkd × 5 i.p.,9 days
same,Mean ± SD survival,L1210 leukemia; 50 mkd × 5 i.p.,8.6 ± 0.2
same,Survival Range,L1210 leukemia; 100 mkd × 5 i.p.,7 to 8 days
same,Median survival,L1210 leukemia; 100 mkd × 5 i.p.,8 days
same,Mean ± SD survival,L1210 leukemia; 100 mkd × 5 i.p.,7.8 ± 0.2
same,Survival Range,L1210 leukemia; 200 mkd × 5 i.p.,7 to 8 days
same,Median survival,L1210 leukemia; 200 mkd × 5 i.p.,8 days
same,Mean ± SD survival,L1210 leukemia; 200 mkd × 5 i.p.,7.8 ± 0.2
"O=c1[nH]c(=O)n([C@H]2C[C@H](O)[C@@H](CO)O2)cc1F [5-FdUr, 5-Fluorodeoxyuridine, reference compound]",IC50,"L1210 leukemia cells [2]; L1210, with 1×10^-5 M thymidine",> 0.01 µM
same,IC50,"L1210 leukemia cells [2]; L1210, without added thymidine",0.0003 µM
"Nc1ccn([C@@H]2O[C@H](CO)[C@@H](O)[C@@H]2O)c(=O)n1 [ara-C, Cytosine Arabinoside]",Survival Range,L1210 leukemia; 50 mkd × 5 i.p.,9 to 14 days
same,Median survival,L1210 leukemia; 50 mkd × 5 i.p.,14 days
same,Mean ± SD survival,L1210 leukemia; 50 mkd × 5 i.p.,13.0 ± 1.0
same,Survival Range,L1210 leukemia; 100 mkd × 5 i.p.,14 to 15 days
same,Median survival,L1210 leukemia; 100 mkd × 5 i.p.,14 days
same,Mean ± SD survival,L1210 leukemia; 100 mkd × 5 i.p.,14.4 ± 0.2
same,Survival Range,L1210 leukemia; 200 mkd × 5 i.p.,8 to 19 days
same,Median survival,L1210 leukemia; 200 mkd × 5 i.p.,9 days
same,Mean ± SD survival,L1210 leukemia; 200 mkd × 5 i.p.,12.4 ± 2.3
same,% ILS (increase in life span),"L1210 leukemia; ara-C, 50 mkd × 5 i.p., p < .05",104%
same,% ILS (increase in life span),"L1210 leukemia; ara-C, 100 mkd × 5 i.p., p < .01",126%
same,% ILS (increase in life span),"L1210 leukemia; ara-C, 200 mkd × 5 i.p., p < .01",95%
same,effect on lifespan,"L1210 leukemia; i.p. 5 day schedule, 50, 100 and 200 mg/kg",most effective causing a doubling of lifespan
same,Survival Range,L1210/ara-C leukemia; 100 mkd × 5 i.p.,7-7 days
same,% ILS (increase in life span),"L1210/ara-C leukemia; 100 mkd × 5 i.p., NS",0%
same,Median survival,"L1210/ara-C leukemia; 100 mkd × 5 i.p., control 7",7 days
same,Mean ± SD survival,"L1210/ara-C leukemia; 100 mkd × 5 i.p., control 7.1 + 0.1",0 days
same,therapeutic effect,L1210/ara-C leukemia; mice with L1210/ara-C leukemia (Table 4),no therapeutic effect
same,Mean Animal Weight,"L1210/ara-C leukemia; mouse, in vivo, ip",20.0 g
"COC1OC[C@@H](OC(C)=O)[C@@H](OC(C)=O)[C@]1(F)n1cc(F)c(=O)[nH]c1=O (stereo partly drawn) [compound 85027, Methyl 3,4-di-0-acetyl-2-deoxy-2(R)-[1H,3H-2,4-dioxo-5-fluoro-1-pyrimidinyl]-2-fluoro-α-D-arabinopyranoside [5b] and Methyl 3,4-di-0-acetyl-2-deoxy-2(R)-[1H,3H-2,4-dioxo-5-fluoro-1-pyrimidinyl]-2-fluoro-β-D-arabinopyranoside[6b]]",reversal of cellular cytotoxicity by exogenous nucleosides,"L1210 leukemia cells [2]; exogenous thymidine, uridine or deoxyuridine, tissue culture","not reversed by exogenous thymidine, uridine or deoxyuridine"
same,effect of added nucleoside on the IC50,"L1210 leukemia cells [2]; thymidine (1×10^-5 M), uridine (1×10^-4 M) or deoxyuridine (1×10^-5 M)",< 10%
same,IC50,L1210 leukemia cells [1],34 µM
same,Survival Range,L1210 leukemia; 50 mkd × 5 i.p.,8-8 days
same,Median survival,L1210 leukemia; 50 mkd × 5 i.p.,8 days
same,Mean ± SD survival,L1210 leukemia; 50 mkd × 5 i.p.,8 ± 0
same,Survival Range,L1210 leukemia; 100 mkd × 5 i.p.,7 to 8 days
same,Median survival,L1210 leukemia; 100 mkd × 5 i.p.,8 days
same,Mean ± SD survival,L1210 leukemia; 100 mkd × 5 i.p.,7.8 ± 0.2
same,Survival Range,L1210 leukemia; 200 mkd × 5 i.p.,8 to 9 days
same,therapeutic activity compared with araC,L1210 leukemia; 200 mkd × 5 i.p.,less therapeutic activity than araC
same,Median survival,L1210 leukemia; 200 mkd × 5 i.p.,8 days
same,Mean ± SD survival,L1210 leukemia; 200 mkd × 5 i.p.,8.2 ± 0.22
same,% ILS (increase in life span),"L1210 leukemia; 85027, 50 mkd × 5 i.p., p < 0.01",25%
same,% ILS (increase in life span),"L1210 leukemia; 85027, 100 mkd × 5 i.p., p < 0.05",22%
same,% ILS (increase in life span),"L1210 leukemia; 85027, 200 mkd × 5 i.p., p < 0.01",29%
same,cross resistance to ara-C and 5-FU,L1210/ara-C leukemia; summary of L1210/ara-C and L1210/5-FU tests,not cross resistant
"CCCCCC(=O)O[C@@H]1[C@H](OC(=O)CCCCC)COC(OC)[C@@]1(F)n1ccc(=O)[nH]c1=O (stereo partly drawn) [compound 85058, Methyl 2-deoxy-2(R)-[1H,3H-2,4-dioxo-1-pyrimidinyl]-2-fluoro-3,4-di-0-hexanoyl-α-D-arabinopyranoside [5d] and Methyl 2-deoxy-2(R)-[1H,3H-2,4-dioxo-1-pyrimidinyl]-2-fluoro-3,4-di-0-hexanoyl-β-D-arabinopyranoside [6d]]",IC50,L1210 leukemia cells [1],40 µM
same,growth inhibitory activity in words,L1210 leukemia cells [1],did not significantly affect activity
"COC1OC[C@@H](OC(C)=O)[C@@H](OC(C)=O)[C@]1(F)n1cc(C)c(=O)[nH]c1=O (stereo partly drawn) [compound 85060, Methyl 3,4-di-0-acetyl-2-deoxy-2(R)-[1H,3H-2,4-dioxo-5-methyl-1-pyrimidinyl]-2-fluoro-α-D-arabinopyranoside [5c] and Methyl 3,4-di-0-acetyl-2-deoxy-2(R)-[1H,3H-2,4-dioxo-5-methyl-1-pyrimidinyl]-2-fluoro-β-D-arabinopyranoside [6c]]",IC50,L1210 leukemia cells [1],> 100 µM
same,growth inhibitory activity in words,L1210 leukemia cells [1],inactive

# — patent publication US4918056A, “2-substituted arabinopyranosyl nucleosides and nucleotides” (priority 1986, dated 1990)
